Assay results as given in PubChem BioAssay AID220 (DTP/NCI, 2004).
“And” between values parts separate entries of the source, which are not always exact repeats. Identical values can stand only once. Results filed as inconclusive are left out.

Test system: CD8F1 mice, subcutaneous mammary adenocarcinoma, T/C%
Test: NCI In Vivo Anticancer Drug Screen. Data for tumor model Mammary Adenocarcinoma CD8F1 (subcutaneous) in CD8F1
Details: higher = larger tumour
Outline: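 Ratio of treated to vehicle-control outcome, based on either survival or tumor size, in mice bearing transplantable tumors given the test compound.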

[1] = endpoint: median tumor weight (est.), dose: 12.5 mg/kg/injection, schedule: Q07DX005 (ip), vehicle: saline
[2] = endpoint: median tumor weight (est.), dose: 50.0 mg/kg/injection, schedule: Q07DX005 (ip), vehicle: saline
[3] = endpoint: median tumor weight (est.), dose: 200.0 mg/kg/injection, schedule: Q07DX005 (ip), vehicle: saline

O=NN(CCCl)C(=O)NC1OC(CO)C(O)C(O)C1O (stereo not given)
T/C (endpoint: median tumor weight (est.), dose: 1.25 mg/kg/injection, schedule: Q07DX005 (ip), vehicle: saline): 113 % of control | T/C (endpoint: median tumor weight (est.), dose: 2.5 mg/kg/injection, schedule: Q07DX005 (ip), vehicle: saline): 91 % of control | T/C (endpoint: median tumor weight (est.), dose: 5.0 mg/kg/injection, schedule: Q07DX005 (ip), vehicle: saline): 106 % of control | T/C (endpoint: median tumor weight (est.), dose: 10.0 mg/kg/injection, schedule: Q07DX005 (ip), vehicle: saline): 29 % of control

Nc1nnc[se]1
T/C (endpoint: median tumor weight change, dose: 15.6 mg/kg/injection, schedule: Q01DX001 (ip), vehicle: saline with Tween-80): 80 % of control | T/C (endpoint: median tumor weight change, dose: 31.25 mg/kg/injection, schedule: Q01DX001 (ip), vehicle: saline with Tween-80): 123 % of control | T/C (endpoint: median tumor weight change, dose: 62.5 mg/kg/injection, schedule: Q01DX001 (ip), vehicle: saline with Tween-80): 84 % of control | T/C (endpoint: median tumor weight change, dose: 125.0 mg/kg/injection, schedule: Q01DX001 (ip), vehicle: saline with Tween-80): 94 % of control | T/C (endpoint: median tumor weight change, dose: 250.0 mg/kg/injection, schedule: Q01DX001 (ip), vehicle: saline with Tween-80): 50 % of control | T/C (endpoint: median tumor weight change, dose: 500.0 mg/kg/injection, schedule: Q01DX001 (ip), vehicle: saline with Tween-80): 38 % of control

O=C1CN(CN2CCOCC2)C(=O)CN1CN1CCOCC1
T/C [1]: 170 % of control | T/C [2]: 153 % of control | T/C [3]: 100 % of control

COc1cc(OC)c(OC)cc1/C=C\c1ccnc2ccccc12
T/C (endpoint: median tumor weight (est.), dose: 50.0 mg/kg/injection, schedule: Q07DX005 (ip), vehicle: Klucel (hydroxypropylcellulose) (HPC)): 86 % of control | T/C (endpoint: median tumor weight (est.), dose: 100.0 mg/kg/injection, schedule: Q07DX005 (ip), vehicle: Klucel (hydroxypropylcellulose) (HPC)): 55 % of control | T/C (endpoint: median tumor weight (est.), dose: 200.0 mg/kg/injection, schedule: Q07DX005 (ip), vehicle: Klucel (hydroxypropylcellulose) (HPC)): 78 % of control

CC(Cc1ccc(O)c(O)c1)C(C)Cc1ccc(O)c(O)c1 (stereo not given)
T/C (endpoint: median tumor weight change, dose: 500.0 mg/kg/injection, schedule: Q01DX001 (ip), vehicle: saline): 123 % of control | T/C (endpoint: median tumor weight change, dose: 1000.0 mg/kg/injection, schedule: Q01DX001 (ip), vehicle: saline): 57 % of control

O=C1C2CC=CCC2C(=O)N1SC(Cl)(Cl)Cl (stereo not given)
T/C (endpoint: median tumor weight (est.), dose: 3.12 mg/kg/injection, schedule: Q07DX005 (ip), vehicle: saline with Tween-80): 78 % of control | T/C (endpoint: median tumor weight (est.), dose: 6.25 mg/kg/injection, schedule: Q07DX005 (ip), vehicle: saline with Tween-80): 70 % of control | T/C (endpoint: median tumor weight (est.), dose: 12.5 mg/kg/injection, schedule: Q07DX005 (ip), vehicle: saline with Tween-80): 89 % of control | T/C (endpoint: median tumor weight (est.), dose: 25.0 mg/kg/injection, schedule: Q07DX005 (ip), vehicle: saline with Tween-80): 74 % of control

COc1cc(C[C@H]2c3cc(OC)c(OC)cc3CCN2C)c(Oc2cc3c(cc2OC)-c2c(OC)c(OC)cc4c2[C@H](C3)N(C)CC4)cc1OC
T/C [1]: 118 % of control | T/C [2]: 95 % of control | T/C [3]: 52 % of control | T/C (endpoint: median tumor weight (est.), dose: 400.0 mg/kg/injection, schedule: Q07DX005 (ip), vehicle: saline): 67 % of control

Nc1n[n+](-c2ccccc2)no1
T/C (endpoint: median tumor weight (est.), dose: 3.12 mg/kg/injection, schedule: Q07DX005 (ip), vehicle: water): 82 % of control | T/C (endpoint: median tumor weight (est.), dose: 50.0 mg/kg/injection, schedule: Q07DX005 (ip), vehicle: water): 10 % of control and 34 % of control | T/C (endpoint: median tumor weight change, dose: 16.0 mg/kg/injection, schedule: Q01DX001 (ip), vehicle: water): 39 % of control | T/C (endpoint: median tumor weight change, dose: 31.0 mg/kg/injection, schedule: Q01DX001 (ip), vehicle: water): 70 % of control | T/C (endpoint: median tumor weight change, dose: 62.0 mg/kg/injection, schedule: Q01DX001 (ip), vehicle: water): 35 % of control

ClCCCN1CCN(CCCl)CC1
T/C (endpoint: median tumor weight change, dose: 10.0 mg/kg/injection, schedule: Q01DX001 (ip), vehicle: saline): 92 % of control and 97 % of control | T/C (endpoint: median tumor weight change, dose: 14.4 mg/kg/injection, schedule: Q01DX001 (ip), vehicle: saline): 88 % of control | T/C (endpoint: median tumor weight change, dose: 20.0 mg/kg/injection, schedule: Q01DX001 (ip), vehicle: saline): 27 % of control and 52 % of control | T/C (endpoint: median tumor weight change, dose: 24.0 mg/kg/injection, schedule: Q01DX001 (ip), vehicle: saline): 15 % of control
